The source of these data is patent publication US9382188B2, “Aromatic ring compound” (TAKEDA PHARMACEUTICAL COMPANY LIMITED, priority 2012, dated 2016).

The structures appear in SMILES notation.

This assay deals with T1, human GPR40 (Homo sapiens, UniProt O14842).
T1 construct: expressed in transfected cells
T1 sequence (O14842 whole entry): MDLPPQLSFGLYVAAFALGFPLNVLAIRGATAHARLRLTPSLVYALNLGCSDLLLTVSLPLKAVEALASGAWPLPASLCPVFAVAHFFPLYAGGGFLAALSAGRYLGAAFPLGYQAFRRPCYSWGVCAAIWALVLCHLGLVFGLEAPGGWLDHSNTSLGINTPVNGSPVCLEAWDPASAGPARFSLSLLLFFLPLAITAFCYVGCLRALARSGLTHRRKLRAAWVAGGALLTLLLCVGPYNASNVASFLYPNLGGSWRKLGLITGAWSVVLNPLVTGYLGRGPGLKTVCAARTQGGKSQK
Nature of the assay: Evaluation of human GPR40 agonist activity with increase in intracellular Ca2+ concentration as an index (FLIPR Tetra). The settings on record: test compound 1 μM; CHO(dhfr-) cells stably expressing human GPR40; 100% = activity of 1 μM WO2009/048527 Example 99.2, 0% = DMSO. In kind it is cell-based. How it is done:
Evaluation of human GPR40 agonist activity with increase in intracellular Ca^2+ concentration as an index
CHO(dhfr-) cells that stably expressed human GPR40 were suspended in MEMα (Nikken Bio Medical Laboratory) containing 10% dialysis serum (GEMINI BIO-PRODUCTS), 10 mM HEPES (Invitrogen), 100 U/mL penicillin, 100 μg/mL streptomycin (Invitrogen), and plated on a 384 well black/clear cell culture plate at 10,000 cells/well. After culture overnight in a CO2 incubator at 37° C., the culture supernatant was removed, and a loading buffer [dye attached to Calcium 5 Assay Kit (Molecular Devices) was dissolved in an assay buffer (20 mM HEPES, 0.2% fatty acid-free BSA (Sigma-Aldrich), 2.5 mM probenecid (DOJINDO)-containing HBSS (Invitrogen)) added with 0.025% Cremophor EL (DOJINDO)] was added at 37.5 μL/well. After incubation in a CO2 incubator at 37° C. for 1 hr, the cells were stood at room temperature for 15 min, an assay buffer containing the test compound at a final concentration of 1 μM was added at 12.5 μL/well in FLIPR Tetra (Molecular Devices), and the fluorescence amount was successively measured. Human GPR40 agonist activity calculated using an increase in the intracellular Ca^2+ concentration as an index, wherein the activity of 1 μM of the compound described in WO 2009/048527 (WO2009/048527 Example 99.2) was 100%, and the activity when DMSO was added instead of the test compound was 0%.
`COc1ccc(F)c(-c2ccc(OCc3cccc(C(CC(=O)O)C4CC4)c3)cc2COCC(C)(C)C)c1` (stereo not drawn) [Example 114, 3-cyclopropyl-3-(3-(((2′-fluoro-5′-methoxy-2-((neopentyloxy)methyl)-[1,1′-biphenyl]-4-yl)oxy)methyl)phenyl)propanoic acid] yielded an activation at 1 µM of 103%.
The same measure, in the same setting: the value for `CC(C)(C)Cc1cc(OCc2cccc(C(CC(=O)O)C3CC3)c2)cnc1-c1cccc(C(=O)O)c1` (stereo not drawn) [Example 51, 3-(5-((3-(2-carboxy-1-cyclopropylethyl)benzyl)oxy)-3-(2,2-dimethylpropyl)pyridin-2-yl)benzoic acid] was 0%; that for `CCOc1ccc(F)c(-c2ncc(OCc3cccc(C(CC(=O)O)C4CC4)c3)cc2CC(C)(C)C)c1` (stereo not drawn) [Example 68, 3-cyclopropyl-3-(3-(((5-(2,2-dimethylpropyl)-6-(5-ethoxy-2-fluorophenyl)pyridin-3-yl)oxy)methyl)phenyl)propanoic acid] was 116%.
On the same count and under the same terms, the value for `COc1ccc(F)c(-c2ccc(OCc3cccc(C(CC(=O)O)C4CC4)c3)cc2C(O)C(C)(C)C)c1` (stereo not drawn) [Example 95] was 107%; that for `COc1cncc(-c2ncc(OCc3cccc(C(CC(=O)O)C4CC4)c3)cc2CC(C)(C)C)c1` (stereo not drawn) [Example 66, 3-cyclopropyl-3-(3-(((3-(2,2-dimethylpropyl)-5′-methoxy-2,3′-bipyridin-5-yl)oxy)methyl)phenyl)propanoic acid] was 57%.
Still for that read-out and setting: next, `CCC(C)(C)C(OCCOC)c1cc(OCc2cccc(C(CC(=O)O)C3CC3)c2)ccc1-c1cc(OC)ccc1F` (stereo not drawn) [Example 110, 3-cyclopropyl-3-(3-(((2′-fluoro-5′-methoxy-2-(1-(2-methoxyethoxy)-2,2-dimethylbutyl)biphenyl-4-yl)oxy)methyl)phenyl)propanoic acid]: 94%; `CC(C)(C)Cc1cc(OCc2cccc(C(CC(=O)O)C3CC3)c2)cnc1-c1cccc(NS(C)(=O)=O)c1` (stereo not drawn) [Example 62, 3-cyclopropyl-3-(3-(((5-(2,2-dimethylpropyl)-6-(3-((methylsulfonyl)amino)phenyl)pyridin-3-yl)oxy)methyl)phenyl)propanoic acid]: 4%.
`COc1ccc(F)c(-c2ccc(OCc3cccc(C(CC(=O)O)C4CC4)c3)cc2OC(C)(C)C)c1` (stereo not drawn) [Example 74, 3-(3-(((2-tert-butoxy-2′-fluoro-5′-methoxybiphenyl-4-yl)oxy)methyl)phenyl)-3-cyclopropylpropanoic acid] displayed an activation at 1 µM of 104%.
Same read-out and setting: next, `Cc1cncc(-c2ncc(OCc3cccc(C(CC(=O)O)C4CC4)c3)cc2CC(C)(C)C)c1` (stereo not drawn) [Example 63, 3-cyclopropyl-3-(3-(((3-(2,2-dimethylpropyl)-5′-methyl-2,3′-bipyridin-5-yl)oxy)methyl)phenyl)propanoic acid]: 21%; `COc1ccc(F)c(-c2ccc(OCc3cccc(C(CC(=O)O)CC(=O)O)c3)cc2CC(C)(C)C)c1` [Example 82, 3-(3-(((2′-fluoro-5′-methoxy-2-neopentyl-[1,1′-biphenyl]-4-yl)oxy)methyl)phenyl)pentanedioic acid]: 5%.
Same read-out and setting: the value for `COc1ccc(F)c(-c2ccc(OCc3cccc(C(CC(=O)O)C4CC4)c3)c(CCCC(C)(C)C)c2)c1` (stereo not drawn) [Example 21, 3-cyclopropyl-3-(3-(((3-(4,4-dimethylpentyl)-2′-fluoro-5′-methoxybiphenyl-4-yl)oxy)methyl)phenyl)propanoic acid] was 103%; that for `COc1ccc(F)c(-c2ccc(OCc3cccc(C(CC(=O)O)C4CC4)c3)cc2C(F)CC(C)(C)C)c1` (stereo not drawn) [Example 94, 3-cyclopropyl-3-(3-(((2′-fluoro-2-(1-fluoro-3,3-dimethylbutyl)-5′-methoxybiphenyl-4-yl)oxy)methyl)phenyl)propanoic acid] was 110%.
On the same count and under the same terms, the value for `COc1ccc(F)c(-c2ccc(OCc3cccc(C(CC(=O)O)C(C)C)c3)cc2CC(C)(C)C)c1` (stereo not drawn) [Example 78, 3-(3-(((2′-fluoro-5′-methoxy-2-neopentyl-[1,1′-biphenyl]-4-yl)oxy)methyl)phenyl)-4-methylpentanoic acid] was 118%.
As to `COc1cc(-c2ncc(OCc3cccc(C(CC(=O)O)C4CC4)c3)cc2CC(C)(C)C)c(F)cn1` (stereo not drawn) [Example 57, 3-cyclopropyl-3-(3-(((3-(2,2-dimethylpropyl)-5′-fluoro-2′-methoxy-2,4′-bipyridin-5-yl)oxy)methyl)phenyl)propanoic acid], the activation at 1 µM was 106%.
Take `COc1ccc(F)c(-c2ccc(OCc3cccc(C(C#CC4CC4)CC(=O)O)c3)cc2CC(C)(C)C)c1` (stereo not drawn) [Example 77, 5-cyclopropyl-3-(3-(((2′-fluoro-5′-methoxy-2-neopentyl-[1,1′-biphenyl]-4-yl)oxy)methyl)phenyl)pent-4-ynoic acid]: the activation at 1 µM turned out to be 101%.
Same read-out and setting: next, `COc1ccc(F)c(-c2ccc(OCc3cccc(C(CC(=O)O)C(C)(F)F)c3)cc2CC(C)(C)C)c1` (stereo not drawn) [Example 86, 4,4-difluoro-3-(3-(((2′-fluoro-5′-methoxy-2-neopentyl-[1,1′-biphenyl]-4-yl)oxy)methyl)phenyl)pentanoic acid]: 95%; `COc1ccc(F)c(-c2ccc(OCc3cc(C(CC(=O)O)C4CC4)ccn3)nc2CC(C)(C)C)c1` (stereo not drawn) [Example 25, 3-cyclopropyl-3-(2-(((6-(2,2-dimethylpropyl)-5-(2-fluoro-5-methoxyphenyl)pyridin-2-yl)oxy)methyl)pyridin-4-yl)propanoic acid]: 108%; `COc1ccc(F)c(-c2ccc(OCc3cccc(C(CC(=O)O)C(F)(F)C(F)(F)F)c3)cc2CC(C)(C)C)c1` (stereo not drawn) [Example 85, 4,4,5,5,5-pentafluoro-3-(3-(((2′-fluoro-5′-methoxy-2-neopentyl-[1,1′-biphenyl]-4-yl)oxy)methyl)phenyl)pentanoic acid]: 96%.
Same read-out and setting: the value for `C=CC(CC(=O)O)c1cccc(COc2ccc(-c3cc(OC)ccc3F)c(CC(C)(C)C)c2)c1` (stereo not drawn) [Example 79, 3-(3-(((2′-fluoro-5′-methoxy-2-neopentyl-[1,1′-biphenyl]-4-yl)oxy)methyl)phenyl)pent-4-enoic acid] was 134%.
Still for that read-out and setting: the value for `COc1ccc(F)c(-c2ccc(OCc3cccc(C(CC(=O)O)C4CC4)c3)cc2CC2(C#N)CCC2)c1` (stereo not drawn) [Example 102, 3-(3-(((2-((1-cyanocyclobutyl)methyl)-2′-fluoro-5′-methoxybiphenyl-4-yl)oxy)methyl)phenyl)-3-cyclopropylpropanoic acid] was 100%; that for `COc1ccc(F)c(-c2ccc(OCc3cc(C(CC(=O)O)C4CC4)ccn3)cc2CC(C)(C)C)c1` (stereo not drawn) [Example 24, 3-cyclopropyl-3-(2-(((2-(2,2-dimethylpropyl)-2′-fluoro-5′-methoxybiphenyl-4-yl)oxy)methyl)pyridin-4-yl)propanoic acid] was 106%.
In turn, `CCC(C)(C)Cc1cc(OCc2cccc(C(CC(=O)O)C3CC3)c2)ccc1-c1cc(OC)ccc1F` (stereo not drawn) [Example 106, 3-cyclopropyl-3-(3-(((2-(2,2-dimethylbutyl)-2′-fluoro-5′-methoxybiphenyl-4-yl)oxy)methyl)phenyl)propanoic acid] returned an activation at 1 µM of 96%.
`CC(C)Oc1ccc(F)c(-c2ncc(OCc3cccc(C(CC(=O)O)C4CC4)c3)cc2CC(C)(C)C)c1` (stereo not drawn) [Example 69, 3-cyclopropyl-3-(3-(((5-(2,2-dimethylpropyl)-6-(2-fluoro-5-isopropoxyphenyl)pyridin-3-yl)oxy)methyl)phenyl)propanoic acid]: the activation at 1 µM turned out to be 61%.
Still for that read-out and setting: the value for `COc1ccc(F)c(-c2ccc(OCc3cccc(C(CC(=O)O)C4CC4)c3)cc2CCCC(C)(C)C)c1` (stereo not drawn) [Example 113, 3-cyclopropyl-3-(3-(((2-(4,4-dimethylpentyl)-2′-fluoro-5′-methoxy-[1,1′-biphenyl]-4-yl)oxy)methyl)phenyl)propanoic acid] was 102%.
Still for that read-out and setting: next, `COc1ccc(F)c(-c2ccc(OCc3cccc(C(CC(=O)O)C4CC4)c3)cc2-c2ccc(C(F)(F)F)cc2)c1` (stereo not drawn) [Example 17, 3-cyclopropyl-3-(3-(((2-fluoro-5-methoxy-4″-(trifluoromethyl)-1,1′:2′,1″-terphenyl-4′-yl)oxy)methyl)phenyl)propanoic acid]: 98%.
Regarding `COc1ccc(F)c(-c2ccc(OCc3cccc(C(CC(=O)O)C4CC4C#N)c3)cc2CC(C)(C)C)c1` (stereo not drawn) [Example 88, 3-(2-cyanocyclopropyl)-3-(3-(((2′-fluoro-5′-methoxy-2-neopentyl-[1,1′-biphenyl]-4-yl)oxy)methyl)phenyl)propanoic acid], the “Human GPR40 agonist activity (increase in intracellular Ca2+ concentration)” value was 112%.
`CC(C)(C)Cc1cc(OCc2cccc(C(CC(=O)O)C3CC3)c2)cnc1-c1cccc(S(=O)(=O)N2CCOCC2)c1` (stereo not drawn) [Example 67, 3-cyclopropyl-3-(3-(((5-(2,2-dimethylpropyl)-6-(3-(morpholin-4-ylsulfonyl)phenyl)pyridin-3-yl)oxy)methyl)phenyl)propanoic acid] yielded an activation at 1 µM of 8%.
